Measurements taken from US11510859B2, “Method for improving aqueous solubility of water-insoluble or slightly water-soluble drugs” (MARINOMED BIOTECH AG, priority 2015, dated 2022).

Experiments:
[1] = Solubility of fluticasone propionate in 0.25x McIlvaine buffer (Examples 10, 11); assay type: physicochemical
Procedure: 0% Propylene glycol • B . . . 5% Propylene glycol • C . . . 10% Propylene glycol • * . . . w/v % Escin • # . . . v/v % Dexpanthenol • y-axis . . . concentration of dissolved fluticasone propionate
FIG. 7 represents the impact of dexpanthenol and saponin concentration on the dissolution of fluticasone propionate in 0.25× McIlvaine buffer containing 5% propylene glycol (maximum concentration achieved=5 μg/ml). […] The presence of 5% dexpanthenol seems to deliver solubility boosting effects. • A . . . 0% Dexpanthenol • B . . . 5% Dexpanthenol • y-axis . . . concentration of dissolved fluticasone propionate • x-axis . . . % Glycyrrhizin

[2] = Saturation concentrations of drugs in buffered solvent, HPLC of supernatant (Example 4); assay type: physicochemical; conditions: McIlvaine buffer pH 6.0; compound pre-dissolved in propylene glycol
Procedure: 250 μl “McIlvaine 0.1%” were mixed with 50 μl dexpanthenol stock solution, brought to 900 μl with distilled water, and combined and vigorously mixed with 100 μl experimental compound pre-dissolved resp. pre-suspended in propylene glycol. Alternative solutions with compound pre-dilutions/pre-suspensions in DMSO were prepared. Samples were centrifuged for 10 min at 15800 rcf. Aliquots of the clear supernatants were transferred into autosampler glass vials and the content of the dissolved experimental compounds was analyzed by HPLC using isocratic elution with 70% or 80% acetonitrile 0.01% TFA/[…] or 30% water 0.01% TFA at 1 ml/min and 50° C. for 10 min on an Agilent Zorbax Eclipse Plus C18 column (3.5 μm, 4.6×150 mm) and UV absorbance detection at the wavelengths appropriate for the respective experimental compound.

porcine nasal mucosa = assay: Ex vivo penetration of fluticasone propionate into porcine nasal mucosa; assay type: in vitro ADME; conditions: 5 μg/ml; 0.03% escin, 3% propylene glycol, 5% dexpanthenol vs suspension without saponin; 15-60 min
Procedure: In order to test for the bioavailability of compositions prepared in accordance with the present invention, experiments were conducted ex vivo wherein an experimental composition comprising fluticasone propionate as a compound of interest was compared to a composition comprising the same compound at the same concentration but without a saponin as a solubilization enhancer.
FIG. 14 represents the concentrations of fluticasone propionate penetrated ex-vivo into porcine nasal mucosa at different time points. The experimental composition comprised 5 μg/ml fluticasone propionate dissolved in aqueous buffer comprising 0.03% escin, 3% propylene glycol and 5% dexpanthenol. The comparative specimen was a suspension comprising the same aqueous buffer and no saponin nor dexpanthenol. Both formulations were added ex-vivo onto surgically extracted porcine nasal mucosa. After 15, 30, 45 and 60 minutes of incubation the mucosa was washed and the amount of permeated fluticasone propionate was determined by HPLC-MS/MS. • A—experimental composition; • B—comparative fluticasone propionate suspension; • x-axis=incubation time in minutes; • y-axis=ng fluticasone propionate/g tissue.

[3] = Fluticasone propionate solubility in the presence of hyaluronic acid (Examples 3, 14); assay type: physicochemical; conditions: 5% propylene glycol, 7.5 g/l hyaluronic acid; one month storage at ambient temperature
Procedure: Samples of series A (0% dexpanthenol): 2.5 ml solution containing the respective escin concentration (McIlvaine 0.01%, 0.02%, 0.03% or McIlvaine buffer) were mixed with 3.6 ml hyaluronic acid stock solution and 0.5 ml Fluticasone propionate pre-solution and filled up to 10 ml with distilled water. Samples of series B (2% dexpanthenol): 2.5 ml solution containing the respective escin concentration (McIlvaine 0.01%, 0.02%, 0.03% or McIlvaine buffer) were mixed with 0.2 ml dexpanthenol, 3.6 ml Hyaluronic acid stock solution and 0.5 ml fluticasone propionate pre-solution and filled up to 10 ml with distilled water. […]
After 1 month storage at room temperature, samples were taken and centrifuged for 11 min at 15700 rcf. The clear supernatant was filled into glass vials and the concentration of dissolved FP (maximal 5 μg/ml) was measured in duplicates by HPLC.
Fluticasone propionate in the presence of hyaluronic acid was analyzed by RP-HPLC (UV absorbance detection at 235 nm) using a gradient from 5% acetonitrile to 90% acetonitrile in water containing 0.01% TFA (see detailed gradient description below).
Solvent A: water HPLC gradient grade 0.01% trifluoroacetic acid. […] From the fluticasone propionate containing samples 40 μl each were injected and analyzed. […]

[4] = U.S. Pat. No. 4,868,170; cited from earlier work

CCC(=O)O[C@]1(C(=O)SCF)[C@H](C)C[C@H]2[C@@H]3C[C@H](F)C4=CC(=O)C=C[C@]4(C)[C@@]3(F)[C@@H](O)C[C@@]21C [Fluticasone propionate]
best achieved concentration without saponin relative to maximum concentration with at least 0.03% escin ([1]; 0.25x McIlvaine buffer pH 6, propylene glycol 0-10%, dexpanthenol 0-5%): about 50% | maximum concentration achieved ([1]; 0.25x McIlvaine buffer, 5% propylene glycol, glycyrrhizin, dexpanthenol 0% or 5%): 5 µg/mL | Saturation concentration in 10% propylene glycol or DMSO without escin or dexpanthenol [2]: 0.68 µg/mL | Saturation concentration in 10% propylene glycol or DMSO, 0.1% escin and 5% dexpanthenol [2]: 5 µg/mL | concentration of drug permeated into mucosal tissue, experimental composition versus comparative suspension (porcine nasal mucosa): around five times higher | effect of dexpanthenol on fluticasone propionate solubility in the presence of escin [3]: synergistically boost the solubility enhancing activity of escin

CCS[C@]1(SC)CC[C@H]2[C@@H]3CCC4=CC(=O)C=C[C@]4(C)[C@@]3(F)[C@@H](O)C[C@@]21C [tipredane]
aqueous solubility [4]: less than 0.2 mg/l
